Measurements: US11896678B2, “Compositions and methods for treatment of peroxisome proliferator-activated receptor gamma (PPARG) activated cancer” (THE BROAD INSTITUTE, INC., priority 2017, dated 2024)

Columns and labels:
UM-UC-9 cells [1] = assay: Direct cell counting dose-response proliferation assay; assay type: cell-based, human
Procedure: To determine whether PPARG modulators affect the proliferation and/or viability of PPARG-activated bladder cancer cell lines, a direct cell counting-based assay was performed. This assay likely avoids potential artifacts associated with the use of an ATP content-based assay, given that PPAR modulators are known to regulate cellular metabolic activity. […] These IC50 values align well with the calculated IC50s from both the cell-based reporter gene assay (FIG. 8A) and the biochemical corepressor assay (FIG. 8D).
(§1) Proliferation Assays: To enable cell-counting experiments, cell lines were transduced with a lentiviral vector encoding nuclear-targeted GFP, TagGFP2-H2B (Evrogen), and stable pools generated following selection for puromycin resistance. Cell lines were maintained for at least 7 days following selection prior to expansion and seeding into 96- or 384-well plates for further analysis. For kinetic proliferation assays, 96-well plates (n 1% 4 per condition) were imaged and counted every two hours using IncuCyte Zoom (Essen BioScience). Media and compounds were replaced approximately every 3-4 days. For endpoint assays to measure dose-response, cells were plated in 384-well plates, dosed with compound, and upon reaching approximately 70% to 90% confluence in control wells, cells were either counted using fluorescence imaging (Incu-Cyte Zoom) or incubated with CyQuant (Thermo Fisher) at the indicated time and plates were read with a fluorescent plate reader.

UM-UC-9 cells [2] = assay: Kinetic proliferation assay (IncuCyte), percent of DMSO control; assay type: cell-based, human; settings: 100 nmol/L; DMSO control at 50% confluency
Description: This assay was expanded to include an additional 8 representative bladder cancer cell lines, including cell lines with PPARG amplification, RXRA p.S427F mutation, activated gene signature, and control cell lines with low level expression of PPARG and target genes. […] Representative data for the UM-UC-9 cell line are shown in FIG. 6B, and is tabulated for the tested bladder cancer cell lines in Table 1. […] Similar results were obtained with these cell lines in parallel studies using clonogenic assays to quantify colony-forming ability (FIG. 10).
as §1, with “Cell lines were maintained for at least 7 days following selection prior to expansion and seeding into 96- or 384-well plates for further analysis.” left out, “Media and compounds were replaced approximately every 3-4 days.” left out

[3] = tested on: PPARG-activated bladder cancer cell lines; assay: Proliferation assays in PPARG-activated bladder cancer cell lines; assay type: cell-based, human; settings: 100 nM-500 nM
Procedure: A panel of bladder cancer cell lines with PPARG modulators in colony formation assays was then tested (FIG. 10), kinetic proliferation assays (IncuCyte Zoom; Essen Bioscience) using cell lines treated with a single concentration of compound (100 nM-500 nM), and end-point dose-response assays (CellTiter Glo or CyQuant).
This assay was expanded to include an additional 8 representative bladder cancer cell lines, including cell lines with PPARG amplification, RXRA p.S427F mutation, activated gene signature, and control cell lines with low level expression of PPARG and target genes. […] Representative data for the UM-UC-9 cell line are shown in FIG. 6B, and is tabulated for the tested bladder cancer cell lines in Table 1. […] This significant (P<0.01) preferential sensitivity to PPARG inverse-agonists, but not antagonists, is maintained across all of the PPARG-activated cell lines in the panel, including the RXRA p.S427F cell line, HT-1197 (41), the PPARG-amplified cell lines, 5637 and UM-UC-9, and the PPARG activation gene signature cell lines Cal29, UM-UC-1, and RT112/84 (FIG. 12). […] Similar results were obtained with these cell lines in parallel studies using clonogenic assays to quantify colony-forming ability (FIG. 10).
as §1

[4] = biological target: T1, PPARG ligand-binding domain - TRAP220/MED1 coactivator peptide (Homo sapiens, UniProt P37231); assay: TR-FRET coactivator assay, TRAP220/MED1 peptide; assay type: biochemical
T1 construct: purchased ThermoFisher Scientific
T1 sequence (P37231 238-503 limits assumed): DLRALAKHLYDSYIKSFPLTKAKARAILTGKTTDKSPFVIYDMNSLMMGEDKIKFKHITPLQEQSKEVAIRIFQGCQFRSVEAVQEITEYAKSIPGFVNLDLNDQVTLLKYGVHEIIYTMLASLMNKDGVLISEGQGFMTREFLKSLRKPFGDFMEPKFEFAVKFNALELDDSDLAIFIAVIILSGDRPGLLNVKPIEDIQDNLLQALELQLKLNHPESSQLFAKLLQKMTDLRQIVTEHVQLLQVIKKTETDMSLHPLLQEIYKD

[5] = biological target: T2, PPARG ligand-binding domain - SMRT/NCOR2 corepressor peptide (Homo sapiens, UniProt P37231); assay: TR-FRET corepressor assay, SMRT/NCOR2 peptide; assay type: biochemical
T2 construct: purchased ThermoFisher Scientific
T2 sequence (P37231 238-503 limits assumed): T1 sequence (P37231 238-503 limits assumed)
Procedure: To evaluate inverse-agonism, a TR-FRET PPARG co-repressor assay (ThermoFisher) that measures recruitment of a fluorescent NCOR1 or NCOR2 corepressor peptide to the PPARG ligand-binding domain was used (ThermoFisher).
To determine effects on interactions between PPARG and coregulators, PPARG modulators were tested in two TR-FRET biochemical interaction assays for agonism and inverse-agonism. Agonism was quantitated using a coactivator assay, which measured the interaction between the PPARG ligand-binding domain and a fluorescently-labeled peptide from TRAP220/MED1. […] To evaluate inverse-agonism biochemically, ligand-dependent interactions were measured between PPARG ligand-binding domain and corepressor peptides from NCoR/NCOR1 and SMRT/NCOR2.

For `O=C(Nc1ccccc1)c1cc([N+](=O)[O-])ccc1Cl` [GW9662], the “effect on cell proliferation compared with DMSO control” value (UM-UC-9 cells [1]) was “no significant effects”, the “effect on proliferation relative to control” value (UM-UC-9 cells [2]) was “no effect” and the “sensitivity of cell lines” value [3] was “not sensitive”. The “effect in coactivator assay” value [4] was “minimal effect” and the increase in signal [5] was 1.7 fold.
